Laboratory results from patent publication US20110301153A1, “METHODS OF TREATING CANCER” (The Trustees of the University of Pennsylvania, priority 2008, published 2011).

Experiments:
Format in all cases: cell-based, human
[1] = test system: SF188 cells stably expressing Bcl-xL; experiment: Akt/PI3K inhibitor treatment, media metabolite analysis (glucose, lactate, glutamine, ammonia); conditions: 8 hours, medium analysed
Protocol: SF188 cells stably expressing Bcl-xL were treated with AktiVIII at doses ranging from 0-20 μM. Medium was collected and analyzed for glucose, lactate, glutamine, and ammonia. The rates shown were calculated from the difference in metabolite concentration between the medium at the time point shown and fresh medium. The data points presented are the mean±SD of triplicate samples.
SF188 cells stably expressing Bcl-xL were plated at a density of 4×10^5 cells in E-well plate format, and incubated in DMEM with 10% FCS for 36 hours prior to treatment with AKT inhibitor VIII (Calbiochem) at 0, 0.1, 2, 5, and 10 μM concentrations in triplicate. After 8 hours, medium samples were collected for metabolite analysis, and viable cells were counted using trypan blue exclusion.
Media glucose, glutamine, lactate, and ammonia concentrations were analyzed using the Nova Biomedical Flex Analyzer (Waltham, Mass.).

shCTRL SF188 cells = experiment: AOA treatment of SF188 cells transduced with control shRNA, viability by trypan blue dye exclusion; conditions: P<0.01
Protocol: (§1) (A) Myc-suppressed SF188 cells are resistant to glutamine starvation. shMYC and shCTRL SF188 cells, described in FIG. 3B, were allowed to plate in the presence of glutamine and then cultured in the absence of glutamine. Cell viability was determined at the time points shown by trypan blue dye exclusion. The data points shown represent the mean±SD of triplicate samples. (B) Myc-suppressed SF188 cells are resistant to an inhibitor of glutaminolysis. shMYC and shCTRL SF188 cells, described in FIG. 3B, were allowed to plate in the presence of glutamine and then were treated with 500 μM aminooxyacetate (AOA). Cell viability was determined at the time points shown by trypan blue dye exclusion. AOA-treated shCTRL cells were also treated with 7 mM dimethyl α-ketoglutarate (AOA+α-ketoglutarate). The data points shown represent the mean±SD of triplicate samples.
(§2) Lentivirus was packaged in 293T cells co-transfected with pLKO.1-puro c-Myc or Luciferase-control shRNA plasmid (Sigma) in addition to the pVSV-G and pCMVdelta8.2 helper plasmids using lipofectamine 2000 (Sigma). […]
(§3) SF188 cells were treated with AOA (Sigma) at doses ranging from 500 nM-500 μM and viability was assessed 24 h post-treatment. […] After allowing to plate overnight, cells were treated with 500 μM for 24 h, and then viability was assessed using trypan blue dye exclusion.

SF188 cells [2] = experiment: Glutamine starvation of SF188 cells with alpha-ketoglutarate replacement, viability by trypan blue dye exclusion; conditions: glutamine replaced with 7 mM dimethyl α-ketoglutarate, 25 mM glucose in medium
Protocol: FIG. 1 concerns glutamine catabolism in the human glioma line SF188. (A) Protein synthesis is a minor fate of glutamine carbon. SF188 cells were cultured in medium supplemented with 0.01% [^14C-U5]glutamine relative to unenriched glutamine for 4 h. [^14C-U5]glutamine in SSA precipitated protein (striped bar) and total glutamine consumed from the medium (grey bar) are presented as the mean±standard deviation (SD) of four independent experiments. (B) The requirement for glutamine can be satisfied by alpha-ketoglutarate. SF188 cells were allowed to plate in complete medium and then cultured in either glutamine-depleted medium (−glutamine), complete medium (+glutamine), or glutamine-depleted medium supplemented with 7 mM dimethyl α-ketoglutarate (−glutamine +α-ketoglutarate). Cell viability was determined at the time points shown by trypan blue dye exclusion. The data presented are the mean±SD of triplicate samples. Representative data from one of three independent experiments are shown.
SF188 cells (UC Brain Tumor Research Center, SF, CA) and SV40-immortalized MEF stably transfected with MycER (a gift from Drs. A T Tikhonenko and R. A. Amaravadi of University of Pennsylvania, Philadelphia, Pa.) were cultured in DMEM (Invitrogen), 10% FBS (Gemini Biosystems), 100 units/ml Penicillin, 100 ug/ml Streptomycin, 25 mM glucose, and 6 mM L-glutamine at 37° C. in a 5% CO2 incubator. […]

SF188 cells [3] = experiment: AOA dose-finding, viability of SF188 cells; conditions: doses 500 nM-500 μM, viability 24 h post-treatment
Protocol: SF188 cells (UC Brain Tumor Research Center, SF, CA) and SV40-immortalized MEF stably transfected with MycER (a gift from Drs. A T Tikhonenko and R. A. Amaravadi of University of Pennsylvania, Philadelphia, Pa.) were cultured in DMEM (Invitrogen), 10% FBS (Gemini Biosystems), 100 units/ml Penicillin, 100 ug/ml Streptomycin, 25 mM glucose, and 6 mM L-glutamine at 37° C. in a 5% CO2 incubator. To avoid depleting […], all experiments were carried out under subconfluent conditions. For glutamine starvation experiments, DMEM without glutamine (Invitrogen) was supplemented with 10% dialyzed FBS (Gemini Biosystems). For metabolic tracing experiments, DMEM without glutamine and with 10% dialyzed FBS was supplemented with either L-glutamine that was unenriched or with L-[U-^13C5]glutamine (Isotec), [U-^14C5]glutamine (GE Amersham), and [γ-^15N]glutamine (Cambridge Isotope Laboratories). DMEM without glucose (Sigma) was supplemented with [U-^14C6]glucose (Sigma). To activate MycER, cells were incubated with 200 nM 4-hydroxytamoxifen for 24 hours.
as §3, with “post-treatment. Moreadith R W & Lehninger A L (1984) J. Biol. Chem. 259(10):6215-6221.” for “post-treatment.”

shMYC SF188 cells = experiment: AOA treatment of SF188 cells transduced with MYC-shRNA, viability by trypan blue dye exclusion; conditions: 500 μM AOA, 24 h, P<0.01
Protocol: as §1, §2, §3

## O=c1[nH]c2ccccc2n1C1CCN(Cc2ccc(-c3nc4cc5[nH]cnc5cc4nc3-c3ccccc3)cc2)CC1 [AKT inhibitor VIII]
[1]
  ammonia production: neither glutamine metabolism nor ammonia production was inhibited
  glucose metabolism (consumption): suppressed glucose metabolism and lactate production in a dose-dependent fashion
  glutamine metabolism (consumption): neither glutamine metabolism nor ammonia production was inhibited
  lactate production: suppressed glucose metabolism and lactate production in a dose-dependent fashion

## COC(=O)CCC(=O)C(=O)OC [dimethyl α-ketoglutarate]
shCTRL SF188 cells; 7 mM dimethyl α-ketoglutarate added to AOA-treated SF188 parental and control transduced cells
  reversal of AOA-induced toxicity (death): completely suppressed the death
SF188 cells [2]
  cell death in glutamine-deficient medium: suppressed the cell death

## NOCC(=O)O [AOA, aminooxyacetate]
SF188 cells [3]
  lowest dose that killed a significant fraction of the cells: 500 µM
shCTRL SF188 cells; 500 μM AOA, 24 h, trypan blue dye exclusion
  cell viability / death of cells transduced with control shRNA: selectively induced the death
shMYC SF188 cells
  cell viability of cells transduced with MYC-shRNA: without affecting the viability
